The test system of this experiment is 994946-033-R-J1-PDC complex spheroid viability. The experiment is described as follows: Anticancer human tumor 994946-033-R-J1-PDC patient-derived melanoma cell line growth inhibition [POLQ]. Conditions: for viability, T/C: stronger effect = lower value. How it is done:
Multicellular complex tumor spheroid response to Polymerase (POL) inhibitors (novobiocin, ART-558, RP6685) in combination with a variety of drugs and investigational agents in selected tumor cell lines
The POL inhibitors (novobiocin, ART-558, and RP6685) were evaluated both individually and in combination with standard of care and investigational anticancer small molecules within a complex spheroid model of solid tumors. . Complex spheroids include a stromal component modeled by human endothelial cells (HUVEC) and fibroblasts modeled by human mesenchymal stem cells (MSCs). The concentration ranges selected for each drug and investigational agent were based upon clinically achievable concentrations if the clinical Cmax of the agent was known.
Compounds. The drugs and investigational agents: novobiocin (NSC847541), ART-558 (NSC835418), RP-6685 (NSC848927), peposertib (NSC802822), ceralasertib (NSC780249), elimusertib (NSC800525), camonsertib (NSC841442), AZD-1390 (NSC803789), olaparib (NSC753686), talazoparib (NSC767125), rucaparib (NSC756644), sotorasib (NSC818433), MRTX-1133 (NSC836407), SN-38 (NSC673596), topotecan (NSC609699), epotoside (NSC141540), doxorubicin (NSC123127), gemcitabine (NSC613327), 5-fluorouracil (NSC19893), paclitaxel (NSC125973), vemurafenib (NSC761431), MSA-2 (NSC828583), SN-011 (NSC837082), adavosertib (NSC754352), prexasertib (NSC758257), carboplatin (NSC241240) and oxaliplatin (NSC266046), were obtained from the National Cancer Institute (NCI) Developmental Therapeutics Program Chemical Repository (21). The FDA-approved anticancer drug set is available from the Developmental Therapeutics Program at https://dtp.cancer.gov/organization/dscb/obtaining/. […] The stock solutions were prepared in dimethyl sulfoxide (DMSO, Sigma-Aldrich, St. Louis, MO, cat. D2650), except for the platinum compounds which were prepared in saline (Quality Biological, Gaithersburg, MD, cat. 114-055-101), at 800-fold the tested concentration and stored at -70 degrees C prior to their use. All drugs and investigational agents were tested over a range starting from a high concentration at or near the clinical Cmax and decreasing in half-log increments. If the clinical Cmax for an agent had not been determined, the highest concentration tested was 10 microM, except for SN-38, which was tested at a high concentration of 1 microM.
Cell Culture. All cells were maintained in an incubator at 37 degrees C and 5% CO2 with 95% humidity. The PDC lines were cultured according to standard operating procedures established by the NCI PDMR (https://pdmr.cancer.gov). Table 3 of the manuscript, lists the cell lines along with the number of the three cell types plated to form the mct-spheroids and media for tumor cell growth. After thawing, all PDC lines, except 997537-175-T-J1-PDC and 415267-285-R-J2-PDC, were cultured in Matrigel-coated flasks prepared with a working solution of 1X Ham's F-12 nutrient mix, without supplementation (Thermo Fisher Scientific, cat. 11765054), 100 U/mL penicillin-streptomycin (Thermo Fisher Scientific, cat. 15140122), and 2.5% Matrigel (Corning Inc., Corning, NY, cat. 354248) for the first three passages. The two PDC lines 997537-175-T-J1-PDC and 415267-285-R-J2-PDC were cultured on uncoated flasks. The 857933-349-R-J2-PDC line was cultured in 6C/Colon 1B media containing advanced DMEM/F-12 (Thermo Fisher Scientific, cat. 12634028), 10 mM HEPES (Thermo Fisher Scientific, cat. 15630080), 1X GlutaMAX supplement (Thermo Fisher Scientific, cat. 35050061), 0.1 mg/mL primocin (InvivoGen, San Diego, CA, cat. ant-pm-2), 10% defined fetal bovine serum, heat inactivated (HyClone Laboratories Inc., Logan, UT, cat. SH30070.03HI), 50% L-WRN conditioned media (ATCC, cat. CRL-3276), 1.25 mM N-Acetyl-L-cysteine (Sigma-Aldrich, cat. A9165), 10 mM nicotinamide (Sigma-Aldrich, cat. N0636), 1X B-27 supplement (Thermo Fisher Scientific, cat. 17504044), 1X N-2 supplement (Thermo Fisher Scientific, cat. […]

Setting [1] is: compound alone, run of 10/31/2023.
[2] abbreviates: compound alone, run of 11/06/2023.
Setting [3] is: curve of first compound, second compound 0.0316 µM.
The mark [4] stands for this setting: curve of first compound, second compound 0.1 µM.
Where [5] appears, read: curve of first compound, second compound 0.316 µM.
[6] abbreviates: curve of first compound, second compound 1 µM.
Setting [7] is: curve of first compound, second compound 3.16 µM.
Where [8] appears, read: curve of first compound, second compound 10 µM.
The mark [9] stands for this setting: second compound 0.0316 µM, first compound 0.0316 µM.
The mark [10] stands for this setting: second compound 0.0316 µM, first compound 0.1 µM.
[11] abbreviates: second compound 0.0316 µM, first compound 0.316 µM.
Where [12] appears, read: second compound 0.0316 µM, first compound 1 µM.
The mark [13] stands for this setting: second compound 0.0316 µM, first compound 3.16 µM.
Setting [14] is: second compound 0.0316 µM, first compound 10 µM.
Setting [15] is: second compound 0.1 µM, first compound 0.0316 µM.
The mark [16] stands for this setting: second compound 0.1 µM, first compound 0.1 µM.
Setting [17] is: second compound 0.1 µM, first compound 0.316 µM.
Where [18] appears, read: second compound 0.1 µM, first compound 1 µM.
Where [19] appears, read: second compound 0.1 µM, first compound 3.16 µM.
The mark [20] stands for this setting: second compound 0.1 µM, first compound 10 µM.
[21] abbreviates: second compound 0.316 µM, first compound 0.0316 µM.
[22] abbreviates: second compound 0.316 µM, first compound 0.1 µM.
Setting [23] is: second compound 0.316 µM, first compound 0.316 µM.
Setting [24] is: second compound 0.316 µM, first compound 1 µM.
[25] abbreviates: second compound 0.316 µM, first compound 3.16 µM.
Setting [26] is: second compound 0.316 µM, first compound 10 µM.
Setting [27] is: second compound 1 µM, first compound 0.0316 µM.
[28] abbreviates: second compound 1 µM, first compound 0.1 µM.
[29] abbreviates: second compound 1 µM, first compound 0.316 µM.
The mark [30] stands for this setting: second compound 1 µM, first compound 1 µM.
The mark [31] stands for this setting: second compound 1 µM, first compound 3.16 µM.
Where [32] appears, read: second compound 1 µM, first compound 10 µM.
Where [33] appears, read: second compound 3.16 µM, first compound 0.0316 µM.
Setting [34] is: second compound 3.16 µM, first compound 0.1 µM.
Where [35] appears, read: second compound 3.16 µM, first compound 0.316 µM.
[36] abbreviates: second compound 3.16 µM, first compound 1 µM.
The mark [37] stands for this setting: second compound 3.16 µM, first compound 3.16 µM.
Where [38] appears, read: second compound 3.16 µM, first compound 10 µM.
[39] abbreviates: second compound 10 µM, first compound 0.0316 µM.
[40] abbreviates: second compound 10 µM, first compound 0.1 µM.
The mark [41] stands for this setting: second compound 10 µM, first compound 0.316 µM.
Setting [42] is: second compound 10 µM, first compound 1 µM.
The mark [43] stands for this setting: second compound 10 µM, first compound 3.16 µM.
Setting [44] is: second compound 10 µM, first compound 10 µM.

SMILES strings stand for the structures. Several values for one entry are separate records, joined by “and”; a condition that tells them apart may be missing. Equal values may be shown once. Bounds are passed on as bounds.

Results on eight compounds are retold here after PubChem BioAssay AID1963827 (Molecular Pharmacology Branch, DTP, NCI, 2024).
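Note: spheroids exposed to drugs for 7 days.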

For the compound `C#Cc1c(F)ccc2cc(O)cc(-c3ncc4c(N5CC6CCC(C5)N6)nc(OCC56CCCN5CC(F)C6)nc4c3F)c12` (stereo unspecified), the viability, T/C (as a rule, the result in the treated group divided by that in the control group, in per cent) is, setting by setting: (compound 0.0316 µM) 78.6% and 88.4% and 92.6%; (compound 0.1 µM) 114% and 85.9% and 77.6%; (compound 0.316 µM) 100% and 90.5% and 92%; (compound 1 µM) 85.9% and 83.8% and 79.2%; (compound 3.16 µM) 77.8% and 81.5% and 90.7%; (compound 10 µM) 12.6% and 21.5% and 6.41%. Moreover, under “curve of compound”, the IC50 (in general, the point on the concentration scale where inhibition reaches its midpoint) was 5.08 µM and 5.79 µM and 5.34 µM.

In the case of `CC1COCCN1c1cc(C2(O)CC3CCC(C2)O3)c2cnn(-c3ccn[nH]3)c2n1` (stereo unspecified), the viability, T/C is 38.3% and 52.8% and 44.6% (compound 0.0316 µM); 16.8% and 26.7% and 40.6% (compound 0.1 µM); 18.2% and 26.2% and 20% (compound 0.316 µM); 23.1% and 20.1% and 17.9% (compound 1 µM); 9.3% and 14.8% and 12% (compound 3.16 µM); 6.01% and 4.54% and 7.55% (compound 10 µM). For the same compound, the IC50 (curve of compound) is under 0.0316 µM.

For the compound `COC1C(OC(N)=O)C(O)C(Oc2ccc3c(O)c(NC(=O)c4ccc(O)c(CC=C(C)C)c4)c(=O)oc3c2C)OC1(C)C` (stereo unspecified), under setting [1], the IC50 was over 10 µM.

With `Cc1cccc(N(C)C(=O)C2C(O)CCN2c2nc(C)cc(C(F)(F)F)c2C#N)c1` (stereo unspecified), under “compound 0.1 µM”, the viability, T/C is 93.6% [middle of 13 runs]. In addition, the IC50 runs as follows: under setting [1], over 10 µM; under setting [2], over 10 µM.

Consider `Nc1ccc(C#CCN(C(=O)Cc2ncc(C(F)(F)F)cc2C(F)(F)F)c2ccc(F)cc2)nn1`, for which, under “compound 10 µM”, the viability, T/C was 94.6% [middle of 13 runs]. In addition, the IC50 under setting [2] was over 10 µM.

For the compound `O=C(Nc1ccc(O)c(NS(=O)(=O)c2ccc(F)cc2)c1)c1ccc(-c2ccccc2)cc1`, the viability, T/C (compound 0.0316 µM) is 68.8% and 116% and 90.9%; the viability, T/C (compound 0.1 µM) is 87.8% and 77.9% and 78.2%; the viability, T/C (compound 0.316 µM) is 83.3% and 91.7% and 96%; the viability, T/C (compound 1 µM) is 80.3% and 100% and 96.6%; the viability, T/C (compound 3.16 µM) was 89.9% and 85.7% and 90.8%; the viability, T/C (compound 10 µM) was 39% and 46.8% and 25.6%. For the setting “curve of compound”, the IC50 was 7.46 µM and 9.19 µM and 6.49 µM.

On to `CC1COCCN1c1cc(-c2ccnn2C)c2ccnc(-c3ccn[nH]3)c2n1` (stereo unspecified) + COC1C(OC(N)=O)C(O)C(Oc2ccc3c(O)c(NC(=O)c4ccc(O)c(CC=C(C)C)c4)c(=O)oc3c2C)OC1(C)C, for which the IC50 reads like this: under setting [3], 0.0482 µM; under setting [4], 0.0792 µM; under setting [5], 0.151 µM; under setting [6], 0.077 µM; under setting [7], 0.057 µM; under setting [8], 0.0584 µM. Moreover, the viability, T/C reads like this: under setting [9], 58.2%; under setting [10], 33.9%; under setting [11], 31.6%; under setting [12], 18.4%; under setting [13], 20.4%; under setting [14], 11.8%. The viability, T/C under setting [15] was 107%; the viability, T/C under setting [16] is 35.2%; the viability, T/C under setting [17] is 21.5%; the viability, T/C under setting [18] is 30.3%; the viability, T/C under setting [19] was 16.8%; the viability, T/C under setting [20] is 12.3%. Also, the viability, T/C runs as follows: under setting [21], 72.3%; under setting [22], 60.4%; under setting [23], 31.5%; under setting [24], 22%; under setting [25], 24.5%; under setting [26], 13.6%. For the same compound, the viability, T/C is 100% under setting [27]; 34.5% under setting [28]; 23.9% under setting [29]; 23.2% under setting [30]; 20.8% under setting [31]; 12.6% under setting [32]. Also, the viability, T/C reads like this: under setting [33], 76.4%; under setting [34], 24.7%; under setting [35], 18.2%; under setting [36], 13.4%; under setting [37], 14.9%; under setting [38], 13.5%. For the same compound, the viability, T/C reads like this: under setting [39], 69.2%; under setting [40], 32%; under setting [41], 21.2%; under setting [42], 32%; under setting [43], 18.5%; under setting [44], 10.3%.

As to `CCCS(=O)(=O)Nc1ccc(F)c(C(=O)c2c[nH]c3ncc(-c4ccc(Cl)cc4)cc23)c1F` + COC1C(OC(N)=O)C(O)C(Oc2ccc3c(O)c(NC(=O)c4ccc(O)c(CC=C(C)C)c4)c(=O)oc3c2C)OC1(C)C, the concentration for half-maximal inhibition (IC50) turned out to be 6.68 µM under setting [3]; 5.99 µM under setting [4]; 5.14 µM under setting [5]; 6.12 µM under setting [6]; 4.85 µM under setting [7]; 6.15 µM under setting [8]. Further, the viability, T/C is 128% under setting [9]; 113% under setting [10]; 99.6% under setting [11]; 93.4% under setting [12]; 109% under setting [13]; 18.3% under setting [14]. The viability, T/C by setting is: under setting [15], 102%; under setting [16], 98.7%; under setting [17], 89.3%; under setting [18], 105%; under setting [19], 106%; under setting [20], 9.61%. Also, the viability, T/C reads like this: under setting [21], 104%; under setting [22], 101%; under setting [23], 97.3%; under setting [24], 121%; under setting [25], 75.3%; under setting [26], 15.4%. In addition, the viability, T/C was 90.5% under setting [27]; 93.4% under setting [28]; 90.4% under setting [29]; 108% under setting [30]; 91.3% under setting [31]; 19.2% under setting [32]. For the same compound, the viability, T/C runs as follows: under setting [33], 113%; under setting [34], 111%; under setting [35], 104%; under setting [36], 93.8%; under setting [37], 67.5%; under setting [38], 20.2%. The viability, T/C by setting is: under setting [39], 102%; under setting [40], 107%; under setting [41], 112%; under setting [42], 94.2%; under setting [43], 99.9%; under setting [44], 13.5%.
